Results as given in patent publication US20210277015A1, “OGA INHIBITOR COMPOUNDS” (Janssen Pharmaceutica NV, priority 2018, published 2021).
Where a name gives a salt, the structure may show the parent alone.

Key:
[1] = biological target: T1, recombinant human Meningioma Expressed Antigen 5 (MGEA5), also referred to as O-GlcNAcase (OGA) (Homo sapiens, UniProt O60502); assay: OGA biochemical assay (inhibition of FM-GlcNAc hydrolysis, fluorescence); details: FM-GlcNAc substrate; for IC50: 6 h at room temperature, read-out: Enzymatic hOGA, pIC50 (converted); for Enzymatic Emax (%) / Emax: maximal effect; for Emax: read-out: Enzymatic Emax (%)
T1 construct: Full length OGA enzyme was purchased at OriGene (cat #TP322411); purchased OriGene TP322411
T1 sequence (O60502 1-916): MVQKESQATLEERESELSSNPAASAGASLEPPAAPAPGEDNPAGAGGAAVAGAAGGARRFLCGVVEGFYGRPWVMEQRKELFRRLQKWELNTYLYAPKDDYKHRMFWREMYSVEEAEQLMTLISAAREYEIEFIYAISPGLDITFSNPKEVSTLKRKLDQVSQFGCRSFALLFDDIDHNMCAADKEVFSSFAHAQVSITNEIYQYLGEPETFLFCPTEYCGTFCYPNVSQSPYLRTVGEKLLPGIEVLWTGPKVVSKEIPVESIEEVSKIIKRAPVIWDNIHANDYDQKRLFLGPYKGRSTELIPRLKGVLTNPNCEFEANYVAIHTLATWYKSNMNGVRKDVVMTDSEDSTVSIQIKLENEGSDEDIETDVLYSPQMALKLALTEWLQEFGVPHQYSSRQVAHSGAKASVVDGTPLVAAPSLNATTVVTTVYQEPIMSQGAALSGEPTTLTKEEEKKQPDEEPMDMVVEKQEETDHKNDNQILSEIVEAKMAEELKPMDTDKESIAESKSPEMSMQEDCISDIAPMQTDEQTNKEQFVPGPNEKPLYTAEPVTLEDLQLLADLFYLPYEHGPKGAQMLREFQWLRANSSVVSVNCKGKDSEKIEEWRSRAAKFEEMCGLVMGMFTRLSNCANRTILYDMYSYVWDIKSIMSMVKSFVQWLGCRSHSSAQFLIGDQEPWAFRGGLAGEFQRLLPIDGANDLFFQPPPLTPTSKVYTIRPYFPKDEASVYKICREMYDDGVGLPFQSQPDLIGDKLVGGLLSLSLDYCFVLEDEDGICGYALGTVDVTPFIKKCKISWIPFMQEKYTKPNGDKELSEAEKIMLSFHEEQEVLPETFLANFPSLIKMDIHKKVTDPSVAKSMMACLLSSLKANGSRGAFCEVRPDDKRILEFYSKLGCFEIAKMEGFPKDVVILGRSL
In short: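 Full-length human OGA (2 nM) pre-incubated 60 min at room temperature with compound, then FM-GlcNAc (100 µM final) added in citrate/phosphate buffer pH 7.2 with 0.005% Tween-20; 6 h at room temperature, stopped with carbonate pH 11.0. Fluorescein read at 485/538 nm; IC50 and Hill coefficient from curve fit.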

OGA = biological target: T2, OGA (Homo sapiens, UniProt O60502); assay: OGA cellular assay (ICC detection of O-GlcNAcylated proteins in HEK293 cells inducible for P301L mutant human Tau); assay type: cell-based; details: for EC50: read-out: Cellular hOGA, pEC50 (converted); for Cellular Emax (%) / Emax: maximum defined by Thiamet G at 200 uM; for Emax: HEK293, HEK293 cells inducible for P301L mutant human Tau
T2 construct: endogenous in cells; host or cells: HEK293 cells inducible for P301L mutant human Tau (isoform 2N4R)
T2 sequence (O60502 1-916): T1 sequence (O60502 1-916)
In short: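 HEK293 cells inducible for P301L human Tau (2N4R), in low-glucose medium, treated 6 h with compounds at 0.2% DMSO. After PFA fixation, O-GlcNAcylated proteins immunostained (CTD110.6), intensity imaged at 488 nm, Hoechst nuclei counted for toxicity. IC50 via non-linear regression; Thiamet G 200 uM as maximum.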

[2] = HEK293 cells inducible for P301L mutant human Tau, 6 hours incubation, ICC O-GlcNAcylation
[3] = HEK293 cells inducible for P301L mutant human Tau

Row | Compound | melting point [°C] | IC50 [1] [nM] | Enzymatic Emax (%) [1] [%] | EC50 (OGA; [2]) [nM] | Cellular Emax (%) (OGA; [3]) | Emax [1] [%] | Emax (OGA) [%] | Cellular hOGA; pEC50 (OGA; [2])
1 | COc1cc(C[C@@H]2CCN([C@@H](C)c3cc4c(cc3F)OCCO4)C2)cc(C)n1 [Product 43] |  | 15.8 |  | 398 |  | 102 | 68 | 
2 | Cc1cc(C[C@@H]2CCN([C@@H](C)c3cc4c(cc3F)OCCO4)C2)cc(C)n1 [Product 45] |  | 5.01 |  | 100 |  | 101 | 72 | 
3 | COc1cc(OC[C@@H]2CCN(C(C)c3ccc4c(n3)OCCO4)C2)cc(C)n1 (stereo partly drawn) [Product 48] |  | 1000 |  | > 1000 |  | 91 | 1 | 
4 | Cc1cc(CO[C@H]2CCN(C(C)c3ccc4c(n3)OCCO4)C2)cc(C)n1 (stereo partly drawn) [Product 49] |  | 5010 |  | > 1000 |  | 70 | -5 | 
5 | Cc1ccc(O[C@H]2CCN(C(C)c3nc4c(cc3F)OCCO4)C2)cn1 (stereo partly drawn) [Product 57] |  | 316 |  | > 1000 |  | 96 | 33 | 
6 | Cc1cc(O[C@@H]2CCN(C(C)c3nc4c(cc3F)OCCO4)C2)ccn1 (stereo partly drawn) [Product 125] |  | 158 |  | 501 |  | 89 | 48 | 
7 | Cc1cc(O[C@@H]2CCN(C(C)c3nc4c(cc3F)OCCO4)C2)nc(C)n1 (stereo partly drawn) [Product 128] |  | 50.1 |  | 437 |  | 95 | 59 | 
8 | Cc1cc(O[C@@H]2CCN(C(C)c3nc4c(cc3F)OCCO4)C2)cnc1C (stereo partly drawn) [Product 129] |  | 200 |  |  |  | 91 | 45 | 

Now from value to compound:

Row | melting point [°C] | IC50 [1] [nM] | Enzymatic Emax (%) [1] [%] | EC50 (OGA; [2]) [nM] | Cellular Emax (%) (OGA; [3]) | Emax [1] [%] | Emax (OGA) [%] | Cellular hOGA; pEC50 (OGA; [2]) | Compound
9 | 297.5 |  |  |  |  |  |  |  | Cc1cc(C[C@H]2CCN(C(C)c3ccc4c(c3)OCCN4C)C2)cc(C)n1 (stereo partly drawn) (as salt: HCl) [Product 1]
10 |  | 10 | 100 | 251 | 74 |  |  |  | Cc1cc(O[C@@H]2CCN(C(C)c3nc4c(cc3F)OCCO4)C2)cc(C)n1 (stereo partly drawn) [Product 39]
11 |  | 631 |  | > 1000 |  | 97 | 9 |  | Cc1cc(OC[C@H]2CCN(C(C)c3ccc4c(n3)OCCO4)C2)cc(C)n1 (stereo partly drawn) [Product 47]
12 |  | 50.1 |  | 631 |  | 100 | 58 |  | Cc1cc(OC[C@@H]2CCN(C(C)c3nc4c(cc3F)OCCO4)C2)cc(C)n1 (stereo partly drawn) [Product 50]
13 |  | 63.1 |  | > 1000 |  | 93 | 43 |  | CC(c1nc2c(cc1F)OCCO2)N1CC[C@@H](Oc2ccc(C#N)nn2)C1 (stereo partly drawn) [Product 53]
14 |  | 2510 |  | > 1000 |  | 83 | 8 |  | Cc1ccc(O[C@H]2CCN(C(C)c3ccc4c(n3)OCCO4)C2)cn1 (stereo partly drawn) [Product 56]
15 |  | 316 |  | > 1000 |  | 100 | 17 |  | Cc1cc(CC2(C)CCN(C(C)c3ccc4c(n3)OCCO4)C2)cc(C)n1 (stereo not drawn) [Product 58]
16 |  | 398 | 97 |  | 34 |  |  | <6 | Cc1cc(CC2(C)CCN(C(C)c3ccc4c(n3)OCCO4)C2)cc(C)n1 (stereo not drawn) [Product 59]
17 |  | 2510 |  | > 1000 |  | 86 | 1 |  | Cc1ncc(O[C@@H]2CCN(C(C)c3ccc4c(n3)OCCO4)C2)cn1 (stereo partly drawn) [Product 62]
18 |  | 100 |  | 501 |  | 94 | 73 |  | Cc1ncc(O[C@@H]2CCN(C(C)c3nc4c(cc3F)OCCO4)C2)nc1C (stereo partly drawn) [Product 126]
19 |  | 200 |  | > 1000 |  | 96 | 26 |  | CC(c1nc2c(cc1F)OCCO2)N1CC[C@@H](Oc2ccc(C(F)(F)F)nc2)C1 (stereo partly drawn) [Product 127]
